Results as given in article PMC5374710, “Discovery of the first dual GSK3β inhibitor/Nrf2 inducer. A new multitarget therapeutic strategy for Alzheimer’s disease” (Scientific Reports, 2017).

Tests used:
[1] = tested on: Nrf2; test: Nrf2-dependent luciferase reporter assay in AREc32 cell line; format: cell-based; settings: Arec32, 24 h, AREc32 cells, read-out: CD (concentration required to double the luciferase reporter activity)
Experimental: Thereafter, we tested the ability of the compounds to induce the Nrf2 transcription factor. We used an Nrf2-dependent luciferase reporter assay in the AREc32 cell line[45]. Cells were cultured for 24 h and then treated with increasing concentrations of compounds 5a–t (0.3, 3, 10 and 30 μM), including the known inducer sulforaphane, containing an isothiocyanate motive as positive control.
AREc32 cells were plated in 96-well white plates (2 × 10^4 cells/well). After 24 h, cells were incubated with increasing concentrations of each compound in duplicate for 24 h. AREc32 cells express constitutively the plasmid pGL-8xARE that implements 8 copies of the EpRE sequences followed by luciferase reporter gen. Therefore, Nrf2 induction is related to the activation of EpRE sequences, expressing luciferase at the same extent as EpRE sequences are activated. The Luciferase Assay System (Promega E1500), was used according to provider protocol and luminescence was quantified in an Orion II microplate luminometer (Berthold, Germany). Fold induction of luciferase activity was normalized to basal conditions. Data are expressed as CD values, expressing the concentration required to double the luciferase activity. CD values are calculated from dose-response curves generated from fold induction of control conditions vs. inducer concentration and fitted by non-linear regression and data interpolated to 2-fold induction concentration.
Breast cancer cells stably transfected to express luciferase after EpRE sequences MCF-7/AREc32 named AREc32, were kindly provided by Dr. C. Roland Wolf (University of Dundee, UK).^14 AREc32 cells were maintained in DMEM with high glucose-glutamax, supplemented with 10 % FBS, 1 % penicillin-streptomycin (10,000 units), and geneticin (0.8 mg/ml G418) at 37 °C and in a 5 % CO2- air atmosphere.^14
AREc32 cells are constitutively transfected with the pGL-8xARE luciferase reporter gene, inserted after EpRE sequences. Thus, Nrf2 translocation to the nucleus induces the activation of the EpRE sequences, expressing their target phase II antioxidant genes, and expressing luciferase at the same extent.^15 AREc32 cells were plated in 96-well white plates (2X10^4 cells/well). After 24 h, cells were incubated with increasing concentrations of each compound in duplicate for 24 h (dissolved in DMSO to give a final 0.1 % vol/vol concentration of vehicle). Each plate included non-treated cells as basal luciferase expression and tBHQ (10 µM) as positive control. TBHQ is a potent Nrf2 inducer used as control in the development of the AREc32 cells.^14 Transfected clones are selected using G418. AREc32 cells express constitutively the plasmid pGL-8xARE that implements 8 copies of the EpRE sequences followed by a luciferase reporter gene. Therefore, the induction of Nrf2 is proportional to the activation of EpRE sequences, expressing luciferase at the same extent as EpRE sequences are activated. Luciferase production is then assessed by a bioluminescence assay. The Luciferase Assay System (Promega E1500), was used according to the Promega protocol and luminescence was quantified in an Orion II microplate luminometer (Berthold, Germany). Relative Light Units (RLU) were recorded for the contents of each well. Fold induction of luciferase activity was calculated by dividing the RLU obtained for the tests wells for each treatment by the average RLU obtained for the basal conditions. Data are expressed as CD values, expressing the concentration required to double the basal luciferase activity, used to quantify the Nrf2 induction potency. CD values are calculated from dose-response curves generated from fold induction of control conditions vs. inducer concentration and fitted by non-linear regression and data interpolated to value the 2-fold induction concentration, using GraphPad Prism software (San Diego, CA, USA).

[2] = tested on: SH-SY5Y cells; test: Neuroprotection against rotenone/oligomycin A (R/O), MTT; format: cell-based; settings: 1 μM, 24 h pre-incubation, 24 h co-incubation with rotenone/oligomycin A 30/10 μM
Experimental: Figure 5 Compounds 5a–t exert neuroprotection in in vitro models of AD. […] Then, treatments were removed and cells were co-incubated with each treatment and okadaic acid for 18 h or R/O for 24 h. Cell viability was measured by the MTT reduction assay. Values are expressed as mean ± SEM of five independent experiments in triplicate. ***p < 0.001; **p < 0.01 respect to toxic stimuli treated cells, considered as 0% of protection.
As stated in the Introduction, oxidative stress is considered one of the main causes of neuronal death in AD. Therefore, we were interested in evaluating the potential antioxidant activity of compounds 5a–t in a model of oxidative stress and energy depletion, which in turn increase cell death. For this purpose, we selected the combination of rotenone (30 μM) and oligomycin A (10 μM) (R/O) to induce neurotoxicity as a model system[23][40] to evaluate the potential neuroprotective activity of the compounds. Melatonin, a well-known antioxidant natural compound, was included as a positive control.
(§1) A pre- and co-incubation protocol was followed. Cells were pre-incubated with the corresponding compound at 1 μM in neuroblastoma cells culture medium. After 24 h, medium was removed and replaced with 1% FBS neuroblastoma culture media containing the corresponding compound (1 μM) and the toxic stimuli, the mixture of rotenone and oligomycin A (30 μM/10 μM respectively) or okadaic acid at 20 nM. Cells were co-incubated for further 24 h with the rotenone and oligomycin A solution or 18 h with the okadaic acid solution. Control cells were incubated with the same amount of DMSO without any drug. After the co-incubation period, cell viability was assessed by the MTT-reduction method.
as §1, with “A pre” for “A pre-”, “1 µM” for “1 μM”, “compound at 1 µM” for “compound (1 μM)”, “stimuli, namely a” for “stimuli, the”, “(30 µM / 10 µM” for “(30 μM/10 μM”, “drug. […]” for “drug.”
The percentage of protection was calculated as follows: the percentage of cell survival obtained with the toxic stimuli-treated cells subtracted to 100 was normalized to 100 % of cell death. The percentage of protection was obtained by subtracting the percentage of cell death in presence of the tested compound to 100%.

[3] = biological target: T1, Nrf2-Keap1 protein-protein interaction (Homo sapiens, UniProt Q14145); test: Fluorescence polarization assay of Nrf2-Keap1 interaction; format: binding; settings: ligand concentration 10 µM; read-out: FP % Inhibition (± SEM)
T1 construct: a solution of the Keap1 Kelch domain (200 nM)
Experimental: Data are presented the means ± SEM of two experiments performed in triplicate.
The FP assay was carried out as previously described.^16,17 Inhibitors (10 µM) were plated onto untreated Corning® black 96 well plates containing a solution of the Keap1 Kelch domain (200 nM) and the fluorescent peptide FITC-β-DEETGEF-OH (1 nM) in Dulbecco’s Phosphate Buffered Saline (DPBS) at pH 7.4 (11% final DMSO concentration, 100 µL final volume). Following a 30 min incubation under slow agitation and away from light at room temperature, the plates were transferred to a PHERAstar microplate reader (BMG Labtech, Ortenberg, Germany) and the fluorescence polarisation was recorded. All measurements were recorded in triplicate.

[4] = biological target: T2, Keap1 Kelch domain (Homo sapiens, UniProt Q14145); test: Differential scanning fluorimetry assay; format: binding; settings: ligand concentration 10 µM
T2 construct: A solution of the Keap1 Kelch domain protein (5 µM)
Experimental: A solution of the Keap1 Kelch domain protein (5 µM) and detection dye SYPRO® orange (5X) in DPBS at pH 7.4 was added onto a qPCR plate containing the compound inhibitor (10 µM, 10% final DMSO concentration, 40 µL final volume). The plate was sealed using an optical foil seal and covered with aluminum foil to protect the dye from light. The plate was then transferred to a plate centrifuge and spun down briefly (200 G, 1 min, room temperature) to remove any bubbles and collect the solution at the bottom of the wells. Following a 30 min incubation at room temperature, the plate was placed into a 7500 Real time PCR machine and the fluorescence intensity at an excitation of 465 nm and emission of 580 nm was recorded during a temperature scan from 25 °C to 95 °C with a temperature ramping rate of 1 °C/min. All measurements were run in triplicate. Life Technologies software was used to set up the run on 7500 Software v.2.0.0 and the initial data processing was carried out on Protein thermal shift solution software. The raw data were exported to MS Excel and analysis was performed using a custom script provided by the Structural Genomics Consortium Oxford.^18 The temperature range over which the protein unfolding occurred was selected and the maximum and minimum (at temperatures below the maximum intensity) fluorescence intensities within this range were determined. The processed data were fitted to the Boltzmann equation by non-linear regression using the Origin Pro software.

[5] = tested on: HepG2 cells; test: Hepatotoxicity in HepG2 cell line (MTT); settings: 24 h
Experimental: Thus, it is relevant to study the potential neurotoxicity and hepatotoxicity of the novel dual GSK3β inhibitors-Nrf2 inducers 5a–t.
Viability was measured as MTT reduction in presence of increasing concentrations of derivatives. Values are expressed as LD50 calculated from dose-response curves of four different concentrations.
HepG2 cells were cultured according to supplier indications in EMEM supplemented with 10 % heat-inactivated FBS, 100 µg/mL streptomycin and 100 units/mL penicillin. Cells were maintained at 37 °C in humidified atmosphere of 95 % air and 5 % CO2. For experimental procedures, cells were cultured in 96-well plates at density of 1x10^5 cells/well. Treatments were performed in 1% FBS medium unless other concentration was specified. Cells were used from 4 up to 13 passages.
Cells were cultured in 48-well (SH-SY5Y, 1x10^5 cells per well) or 96-well plates (HepG2, 1x10^5 cells per well) for 24 h. […] Control cells were incubated with the same concentration of DMSO (0.1 % final concentration) without any drug.

T1 sequence (Q14145 321-609 limits assumed): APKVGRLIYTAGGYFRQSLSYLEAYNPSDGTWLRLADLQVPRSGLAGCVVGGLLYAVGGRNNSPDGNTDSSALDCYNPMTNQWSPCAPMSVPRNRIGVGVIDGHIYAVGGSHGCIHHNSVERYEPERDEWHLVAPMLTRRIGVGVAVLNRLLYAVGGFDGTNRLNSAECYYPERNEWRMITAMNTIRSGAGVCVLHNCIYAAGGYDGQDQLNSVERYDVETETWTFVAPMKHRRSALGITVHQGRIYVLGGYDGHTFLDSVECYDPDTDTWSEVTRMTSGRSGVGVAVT
T2 sequence (Q14145 321-609 limits assumed): as above

In the case of COc1cccc(C2C(C#N)=C(N)Oc3n[nH]c(C)c32)c1 (centres unmarked) [Compound 5c, 6-Amino-4-(3-methoxyphenyl)-3-methyl-2,4-dihydropyrano[2,3-c]pyrazole-5-carbonitrile], the EC50 [1] is reported as 11.3 ± 1.3 µM, the “Percentage of protection against R/O toxicity” value [2] is reported as 55.3% and the inhibition at 10 µM [3] is reported as under 0%. The ΔTm at 10 µM [4] was -0.43 ± 0.49 °C and the “HepG2 LD50” value [5] was over 100 µM.
